One molecule from ChEMBL document CHEMBL5727767, “1,2-substituted cyclopentanes as orexin receptor antagonists” (2020) can be followed below.

Test [1] has as its target T1, Orexin/Hypocretin receptor type 1 (Homo sapiens, UniProt O43613).
T1 sequence (O43613 whole entry): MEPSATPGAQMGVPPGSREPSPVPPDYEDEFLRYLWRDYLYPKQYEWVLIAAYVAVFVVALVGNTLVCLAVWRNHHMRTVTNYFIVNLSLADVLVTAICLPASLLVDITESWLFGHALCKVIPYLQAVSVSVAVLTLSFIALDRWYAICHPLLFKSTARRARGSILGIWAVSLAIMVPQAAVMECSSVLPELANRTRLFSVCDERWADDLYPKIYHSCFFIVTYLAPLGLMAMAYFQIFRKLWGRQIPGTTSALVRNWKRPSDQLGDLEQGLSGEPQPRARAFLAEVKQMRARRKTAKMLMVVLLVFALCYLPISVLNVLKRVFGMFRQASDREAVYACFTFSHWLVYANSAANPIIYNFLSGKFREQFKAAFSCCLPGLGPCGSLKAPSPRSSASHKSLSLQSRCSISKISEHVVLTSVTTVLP
The class given is cell-based.

A further test addresses T2, Orexin receptor type 2 (Homo sapiens, UniProt O43614).
T2 sequence (O43614 whole entry): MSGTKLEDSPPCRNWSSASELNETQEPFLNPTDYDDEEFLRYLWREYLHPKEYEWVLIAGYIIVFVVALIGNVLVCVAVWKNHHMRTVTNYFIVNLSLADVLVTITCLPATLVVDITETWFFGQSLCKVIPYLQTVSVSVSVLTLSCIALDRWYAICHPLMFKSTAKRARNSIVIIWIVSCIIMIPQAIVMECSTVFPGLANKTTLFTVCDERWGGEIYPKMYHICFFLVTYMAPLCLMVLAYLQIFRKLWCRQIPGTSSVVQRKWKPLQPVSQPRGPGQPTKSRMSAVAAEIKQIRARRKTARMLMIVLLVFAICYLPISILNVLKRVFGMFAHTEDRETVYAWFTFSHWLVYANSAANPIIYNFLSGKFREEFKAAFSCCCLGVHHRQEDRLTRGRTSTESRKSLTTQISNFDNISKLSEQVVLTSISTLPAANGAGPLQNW
The class given is cell-based.

Regarding `Cc1ccc(-n2nccn2)c(C(=O)N[C@@H]2CCC[C@@H]2Nc2ccc(Cl)cn2)c1`, the concentration for half-maximal inhibition (IC50) is 270 nM in test [1] and greater than 10000 nM against Orexin receptor type 2.

Usually IC50 stands for the concentration at which inhibition is half-maximal. Lower therefore signals greater potency in that assay.
